Values joined by “and” are separate entries in the source; they are usually repeats but may differ in a detail not shown here. Identical values can stand only once.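 Results reflect a 48-hour exposure of cells in 96-well plates to compound at five concentrations. GI50 = concentration required for 50% inhibition of growth. TGI is the concentration that stops growth completely.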
How the values were obtained:
Assay in all cases: inhibition of tumour cell growth, NCI panel, 48 h
786-0 renal = test system: 786-0 renal
CAKI-1 renal = test system: CAKI-1 renal
COLO 205 colon = test system: COLO 205 colon
LOX IMVI melanoma = test system: LOX IMVI melanoma
MOLT-4 leukemia = test system: MOLT-4 leukemia
SF-268 CNS = test system: SF-268 CNS
SN12C renal = test system: SN12C renal
SR leukemia = test system: SR leukemia
SW-620 colon = test system: SW-620 colon
U251 CNS = test system: U251 CNS

Row | SMILES | GI50 (786-0 renal) | TGI (786-0 renal) | TGI (CAKI-1 renal) | GI50 (COLO 205 colon) | TGI (COLO 205 colon) | GI50 (LOX IMVI melanoma) | TGI (LOX IMVI melanoma) | GI50 (MOLT-4 leukemia) | TGI (MOLT-4 leukemia) | GI50 (SF-268 CNS) | TGI (SF-268 CNS) | TGI (SN12C renal) | GI50 (SR leukemia) | GI50 (SW-620 colon) | TGI (SW-620 colon) | GI50 (U251 CNS) | TGI (U251 CNS) | TGI (SR leukemia) | GI50 (CAKI-1 renal) | GI50 (SN12C renal)
1 | CNc1ccc(-c2cc(=O)oc3ccc(Cl)cc23)cc1 | 133 nM and 44.2 nM | > 100000 nM | > 100000 nM | 278 nM and 201 nM | 1170 nM and 1270 nM | 63.6 nM and 54.2 nM | > 100000 nM | 108 nM and 62.6 nM | 50100 nM | 247 nM and 66 nM | > 100000 nM | > 100000 nM | 46.3 nM | 47.7 nM and 43.7 nM | > 100000 nM | 175 nM and 47.2 nM | > 100000 nM | – | – | –
2 | C[C@H]1CC(=O)C2=CCCC3(SCCCS3)[C@@H]2[C@H]1CO | – | > 100000 nM | > 100000 nM | – | > 100000 nM | – | > 100000 nM | – | > 100000 nM | – | > 100000 nM | > 100000 nM | – | – | > 100000 nM | – | > 100000 nM | > 100000 nM | – | –
3 | C=CCN(/C=C1\C(=O)O[C@H](COC)[C@@]2(C)C1=C(O)C(=O)C1=C2[C@H](OC(C)=O)C[C@]2(C)C(=O)CC[C@@H]12)CC=C | – | 20000 nM and 25700 nM | 20000 nM and 10100 nM | 5040 nM and 1940 nM | 20000 nM and 26300 nM | 547 nM and 1890 nM | 20000 nM and 21400 nM | 1580 nM and 813 nM | 20000 nM and 17100 nM | 992 nM and 1460 nM | 20000 nM and > 100000 nM | 20000 nM and > 100000 nM | 860 nM and 644 nM | 6160 nM and 2090 nM | 20000 nM and > 100000 nM | 1600 nM and 3350 nM | 20000 nM and > 100000 nM | 20000 nM and 8020 nM | 188 nM and 200 nM | 1990 nM and 1070 nM
4 | CCCCN(CCCC)CCCN=c1nc2c(c(N)n1-c1ccccc1)c(=S)n(-c1ccccc1)c(=S)n2-c1ccccc1 | 501 nM | 1080 nM | 1490 nM | 329 nM | 1390 nM | 303 nM | 773 nM | 141 nM | > 34100 nM | 1140 nM | 2470 nM | 2790 nM | 273 nM | 568 nM | 2620 nM | 340 nM | 1270 nM | 1460 nM | 384 nM | 1410 nM
5 | Cc1nc(/N=C(\N)NC(=O)Nc2ccccc2Cl)sc1C | 639 nM | 3250 nM | 9410 nM | 474 nM | 4570 nM | 533 nM | > 100000 nM | 492 nM | > 100000 nM | 1350 nM | > 100000 nM | > 100000 nM | 173 nM | 329 nM | > 100000 nM | 439 nM | 6130 nM | 35500 nM | 435 nM | 739 nM
6 | COc1ccc(/C=C/c2cc(N3CCOCC3)c3cc(F)c(F)cc3n2)cc1OC | 600 nM | 3800 nM | 3240 nM | 558 nM | 3810 nM | 516 nM | 2270 nM | 624 nM | 11000 nM | 775 nM | 16500 nM | 14100 nM | 431 nM | 667 nM | 11600 nM | 728 nM | 10500 nM | 6780 nM | 394 nM | 1680 nM
7 | Cc1cc(-c2nc(-c3ccc(OC(F)(F)F)cc3)no2)nn1Cc1ccnc(N2CCN(C3CC3)CC2)c1 | 13500 nM | > 100000 nM | > 100000 nM | 3270 nM | 25700 nM | 272 nM | > 45600 nM | 3730 nM | 84800 nM | > 42700 nM | > 100000 nM | > 100000 nM | – | > 34500 nM | > 68700 nM | 5520 nM | > 100000 nM | > 74000 nM | 6300 nM | > 34100 nM
